Data: ChEMBL document CHEMBL1949619, “Synthesis of potent oxindole CDK2 inhibitors” (Bioorg Med Chem, 2003)

Key:
[1] = molecular target: Cyclin-dependent kinase 2/cyclin E1 (Homo sapiens, UniProt P24941); experiment: Inhibition of human CDK2/CyclinE expressed in baculovirus insect cell system using Rb as substrate after 30 mins by scintillation counting
MDA-MB-435 = experiment: Antiproliferative activity against human MDA-MB-435 cells after 5 days by MTT assay; type: functional, cell-based; settings: MDA-MB-435, 120 h
RKO = experiment: Antiproliferative activity against human RKO cells after 5 days by MTT assay; type: functional, cell-based; settings: 120 h
[2] = Cell cycle arrest in human 1043SK cells assessed as accumulation at G1 phase measuring reduction of BrdU incorporation of into cellular DNA by ELISA; type: functional, cell-based

IC50 [1]	IC50 (MDA-MB-435)	IC50 [2]	Structure (SMILES)	IC50 (RKO)
5 nM	139 nM		COc1cc[nH]c1/C=C1\C(=O)Nc2ccc([N+](=O)[O-])c(NC3CCNCC3)c21	24 nM
5 nM	163 nM		COc1cc[nH]c1/C=C1\C(=O)Nc2ccc([N+](=O)[O-])c(N3CC[C@H](C(N)=O)C3)c21	50 nM
3 nM	88 nM	830 nM	COc1cc[nH]c1/C=C1\C(=O)Nc2ccc([N+](=O)[O-])c(N3CC[C@@H](O)C3)c21	32 nM
5 nM	104 nM		COc1cc[nH]c1/C=C1\C(=O)Nc2ccc([N+](=O)[O-])c(N3CC[C@H](O)C3)c21	37 nM
4 nM	46 nM		COc1cc[nH]c1/C=C1\C(=O)Nc2ccc([N+](=O)[O-])c(N3CCC(O)CC3)c21	< 10 nM
5 nM	1000 nM		COc1cc[nH]c1/C=C1\C(=O)Nc2ccc([N+](=O)[O-])c(N[C@H]3CC[C@H](O)C3)c21 (racemic)	339 nM
2 nM	441 nM		COc1cc[nH]c1/C=C1\C(=O)Nc2ccc([N+](=O)[O-])c(N3CCCC(CO)C3)c21 (centres undefined)	124 nM
5 nM	< 10 nM		COc1cc[nH]c1/C=C1\C(=O)Nc2ccc([N+](=O)[O-])c(N3CCC(N)CC3)c21	< 10 nM
2 nM	250 nM		COc1cc[nH]c1/C=C1\C(=O)Nc2ccc([N+](=O)[O-])c(N3CCCC(O)C3)c21 (centres undefined)	105 nM
209 nM	8080 nM		COc1ccc2c(c1)/C(=C/c1[nH]ccc1OC)C(=O)N2	3860 nM
5360 nM			COc1cc[nH]c1/C=C1\C(=O)Nc2ccccc21	
6 nM	623 nM		COc1cc[nH]c1/C=C1\C(=O)Nc2ccc([N+](=O)[O-])c(N3CCCC(C(N)=O)C3)c21 (centres undefined)	192 nM
3 nM	33 nM		COc1cc[nH]c1/C=C1\C(=O)Nc2ccc([N+](=O)[O-])c(N3CC[C@@H](NC=O)C3)c21	32 nM
5 nM	61 nM		COc1cc[nH]c1/C=C1\C(=O)Nc2ccc([N+](=O)[O-])c(N[C@H]3CC[C@H](N)C3)c21 (racemic)	< 15 nM
6 nM	8550 nM		COc1cc[nH]c1/C=C1\C(=O)Nc2ccc([N+](=O)[O-])c(N[C@H]3CC[C@H](O)CC3)c21	8040 nM
1750 nM	> 30000 nM		COc1cc[nH]c1/C=C1\C(=O)Nc2ccc([N+](=O)[O-])c(-n3ccnc3)c21	3920 nM
847 nM	> 30000 nM		COc1cc[nH]c1/C=C1\C(=O)Nc2ccc(F)cc21	11900 nM
39 nM	7460 nM		COc1cc[nH]c1/C=C1\C(=O)Nc2ccc([N+](=O)[O-])cc21	692 nM
28 nM	1270 nM		COc1cc[nH]c1/C=C1\C(=O)Nc2ccc([N+](=O)[O-])c(N3CCNC(C(N)=O)C3)c21 (centres undefined)	449 nM
3 nM	< 10 nM		COc1cc[nH]c1/C=C1\C(=O)Nc2ccc([N+](=O)[O-])c(N3CC[C@@H](N)C3)c21	< 10 nM
